According to patent EP4745135A1 (Gluetacs Therapeutics (Shanghai) Co., Ltd., priority 2023, dated 2025):

Assays:
CK1α = target: T1, CK1α (Homo sapiens, UniProt P48729+Q96SW2); assay: Western blot, degradation of substrate protein in hPBMCs; type: cell-based; details: 24 hours treatment, compounds at 50 nM and 500 nM (concentration behind the class not stated)
T1 construct: effects of the compounds of the present disclosure on the expression of target proteins in cells; endogenous in cells; host or cells: human PBMCs (Milecell Biotechnologies)
T1 sequence (P48729 whole entry): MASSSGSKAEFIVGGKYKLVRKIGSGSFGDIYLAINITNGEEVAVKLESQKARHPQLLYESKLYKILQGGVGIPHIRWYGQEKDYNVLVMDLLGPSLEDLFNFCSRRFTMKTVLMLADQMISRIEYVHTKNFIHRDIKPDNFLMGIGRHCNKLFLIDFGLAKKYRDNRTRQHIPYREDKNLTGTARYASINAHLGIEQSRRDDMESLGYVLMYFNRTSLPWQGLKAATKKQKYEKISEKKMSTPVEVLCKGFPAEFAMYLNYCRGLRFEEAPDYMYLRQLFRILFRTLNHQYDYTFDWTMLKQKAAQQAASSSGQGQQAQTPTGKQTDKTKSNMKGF
T1 sequence (Q96SW2 whole entry): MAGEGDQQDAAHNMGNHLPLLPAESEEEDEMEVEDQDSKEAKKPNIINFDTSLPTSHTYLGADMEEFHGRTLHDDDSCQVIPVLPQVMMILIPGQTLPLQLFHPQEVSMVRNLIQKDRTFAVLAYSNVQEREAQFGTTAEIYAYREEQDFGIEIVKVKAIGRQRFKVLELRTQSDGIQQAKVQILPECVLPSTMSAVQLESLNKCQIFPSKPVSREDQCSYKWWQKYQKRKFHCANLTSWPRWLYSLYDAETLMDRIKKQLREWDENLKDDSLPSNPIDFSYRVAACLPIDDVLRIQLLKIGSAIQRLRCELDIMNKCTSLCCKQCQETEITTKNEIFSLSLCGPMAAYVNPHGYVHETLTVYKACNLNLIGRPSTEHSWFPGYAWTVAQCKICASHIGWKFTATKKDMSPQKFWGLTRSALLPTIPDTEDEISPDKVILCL
T1 sequence (Q16531 whole entry partner): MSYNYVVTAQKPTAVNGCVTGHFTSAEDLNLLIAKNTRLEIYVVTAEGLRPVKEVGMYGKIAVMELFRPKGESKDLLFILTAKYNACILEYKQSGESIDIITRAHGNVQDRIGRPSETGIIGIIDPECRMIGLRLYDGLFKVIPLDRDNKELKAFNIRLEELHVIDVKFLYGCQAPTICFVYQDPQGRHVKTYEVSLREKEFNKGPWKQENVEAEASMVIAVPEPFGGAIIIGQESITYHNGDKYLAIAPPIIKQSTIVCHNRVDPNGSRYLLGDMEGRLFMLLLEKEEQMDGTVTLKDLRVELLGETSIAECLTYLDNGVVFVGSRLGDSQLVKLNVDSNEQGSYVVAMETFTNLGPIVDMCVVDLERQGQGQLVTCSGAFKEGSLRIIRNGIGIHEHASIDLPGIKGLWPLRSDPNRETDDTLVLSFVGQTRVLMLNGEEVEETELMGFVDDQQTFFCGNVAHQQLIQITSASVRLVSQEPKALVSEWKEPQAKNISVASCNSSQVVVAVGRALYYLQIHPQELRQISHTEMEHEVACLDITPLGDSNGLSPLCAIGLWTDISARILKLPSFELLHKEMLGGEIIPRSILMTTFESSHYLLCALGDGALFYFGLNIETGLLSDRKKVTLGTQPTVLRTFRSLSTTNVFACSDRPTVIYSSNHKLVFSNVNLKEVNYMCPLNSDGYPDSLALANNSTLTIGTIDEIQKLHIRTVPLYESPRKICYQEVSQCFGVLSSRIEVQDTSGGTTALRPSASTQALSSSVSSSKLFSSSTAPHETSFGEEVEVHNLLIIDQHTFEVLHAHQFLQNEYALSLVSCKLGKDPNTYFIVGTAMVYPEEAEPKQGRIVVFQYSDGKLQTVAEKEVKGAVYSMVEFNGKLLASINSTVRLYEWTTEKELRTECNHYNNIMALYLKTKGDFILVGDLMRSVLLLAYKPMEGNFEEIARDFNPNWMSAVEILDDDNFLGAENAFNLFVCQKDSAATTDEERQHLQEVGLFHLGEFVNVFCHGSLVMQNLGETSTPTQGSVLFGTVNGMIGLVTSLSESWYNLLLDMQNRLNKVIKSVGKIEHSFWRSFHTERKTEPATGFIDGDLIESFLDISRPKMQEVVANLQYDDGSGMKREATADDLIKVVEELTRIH

IKZF1 = target: T2, IKZF1 (Homo sapiens, UniProt Q13422+Q96SW2); assay: as above; type: cell-based; details: 24 hours treatment, compounds at 50 nM and 500 nM (concentration behind the class not stated)
T2 construct: effects of the compounds of the present disclosure on the expression of target proteins in cells; endogenous in cells; host or cells: human PBMCs (Milecell Biotechnologies)
T2 sequence (Q13422 whole entry): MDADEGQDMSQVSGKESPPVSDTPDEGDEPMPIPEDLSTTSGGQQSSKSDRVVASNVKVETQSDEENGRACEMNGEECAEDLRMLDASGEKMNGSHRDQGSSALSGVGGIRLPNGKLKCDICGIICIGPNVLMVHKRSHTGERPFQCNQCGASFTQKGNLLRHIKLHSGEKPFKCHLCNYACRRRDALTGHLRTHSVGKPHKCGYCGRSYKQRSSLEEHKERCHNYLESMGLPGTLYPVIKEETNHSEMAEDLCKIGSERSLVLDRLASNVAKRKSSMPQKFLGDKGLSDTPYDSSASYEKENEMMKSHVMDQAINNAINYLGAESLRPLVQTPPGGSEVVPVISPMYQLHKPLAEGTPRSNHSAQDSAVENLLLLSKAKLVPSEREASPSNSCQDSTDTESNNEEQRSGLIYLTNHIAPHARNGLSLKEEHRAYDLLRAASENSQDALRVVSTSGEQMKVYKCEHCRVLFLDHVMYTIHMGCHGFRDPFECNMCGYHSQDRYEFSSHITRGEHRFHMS
T2 sequence (Q96SW2 whole entry): as the sequence (Q96SW2 whole entry) above
T2 sequence (Q16531 whole entry partner): as the sequence (Q16531 whole entry partner) above

IKZF2 = target: T3, IKZF2 (Homo sapiens, UniProt Q96SW2+Q9UKS7); assay: as above; type: cell-based; details: 24 hours treatment, compounds at 50 nM and 500 nM (concentration behind the class not stated)
T3 construct: effects of the compounds of the present disclosure on the expression of target proteins in cells; endogenous in cells; host or cells: human PBMCs (Milecell Biotechnologies)
T3 sequence (Q9UKS7 whole entry): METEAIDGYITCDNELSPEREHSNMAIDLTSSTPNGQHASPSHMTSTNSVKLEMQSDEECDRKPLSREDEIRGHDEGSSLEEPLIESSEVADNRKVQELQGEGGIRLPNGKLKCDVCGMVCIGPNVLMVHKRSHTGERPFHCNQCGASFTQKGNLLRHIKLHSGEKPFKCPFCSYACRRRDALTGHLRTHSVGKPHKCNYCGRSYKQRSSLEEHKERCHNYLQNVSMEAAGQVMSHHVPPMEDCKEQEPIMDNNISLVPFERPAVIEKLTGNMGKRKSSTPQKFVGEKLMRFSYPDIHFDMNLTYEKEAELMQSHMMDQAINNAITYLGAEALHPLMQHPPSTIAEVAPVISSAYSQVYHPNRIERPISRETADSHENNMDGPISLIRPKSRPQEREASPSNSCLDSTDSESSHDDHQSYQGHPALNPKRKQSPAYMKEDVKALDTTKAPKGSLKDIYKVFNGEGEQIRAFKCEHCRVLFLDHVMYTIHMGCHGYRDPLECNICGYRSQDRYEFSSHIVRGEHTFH
T3 sequence (Q96SW2 whole entry): as the sequence (Q96SW2 whole entry) above
T3 sequence (Q16531 whole entry partner): as the sequence (Q16531 whole entry partner) above

IKZF3 = target: T4, IKZF3 (Homo sapiens, UniProt Q96SW2+Q9UKT9); assay: as above; type: cell-based; details: 24 hours treatment, compounds at 50 nM and 500 nM (concentration behind the class not stated)
T4 construct: effects of the compounds of the present disclosure on the expression of target proteins in cells; endogenous in cells; host or cells: human PBMCs (Milecell Biotechnologies)
T4 sequence (Q9UKT9 whole entry): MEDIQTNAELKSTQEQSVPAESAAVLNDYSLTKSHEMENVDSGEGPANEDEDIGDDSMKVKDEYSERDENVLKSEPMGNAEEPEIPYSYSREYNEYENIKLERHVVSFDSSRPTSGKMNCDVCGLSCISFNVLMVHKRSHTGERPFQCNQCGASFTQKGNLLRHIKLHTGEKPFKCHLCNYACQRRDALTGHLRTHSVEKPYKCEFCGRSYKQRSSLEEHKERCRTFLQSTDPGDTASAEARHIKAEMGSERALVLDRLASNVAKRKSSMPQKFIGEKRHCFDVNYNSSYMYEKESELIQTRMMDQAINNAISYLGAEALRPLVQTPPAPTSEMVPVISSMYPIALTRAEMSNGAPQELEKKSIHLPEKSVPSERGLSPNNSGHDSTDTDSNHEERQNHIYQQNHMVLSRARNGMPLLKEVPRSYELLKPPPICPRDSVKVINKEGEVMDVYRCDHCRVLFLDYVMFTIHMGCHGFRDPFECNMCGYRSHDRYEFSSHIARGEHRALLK
T4 sequence (Q96SW2 whole entry): as the sequence (Q96SW2 whole entry) above
T4 sequence (Q16531 whole entry partner): as the sequence (Q16531 whole entry partner) above

WEE1 = target: T5, WEE1 (Homo sapiens, UniProt P30291+Q96SW2); assay: as above; type: cell-based; details: 24 hours treatment, compounds at 50 nM and 500 nM (concentration behind the class not stated)
T5 construct: effects of the compounds of the present disclosure on the expression of target proteins in cells; endogenous in cells; host or cells: human PBMCs (Milecell Biotechnologies)
T5 sequence (P30291 whole entry): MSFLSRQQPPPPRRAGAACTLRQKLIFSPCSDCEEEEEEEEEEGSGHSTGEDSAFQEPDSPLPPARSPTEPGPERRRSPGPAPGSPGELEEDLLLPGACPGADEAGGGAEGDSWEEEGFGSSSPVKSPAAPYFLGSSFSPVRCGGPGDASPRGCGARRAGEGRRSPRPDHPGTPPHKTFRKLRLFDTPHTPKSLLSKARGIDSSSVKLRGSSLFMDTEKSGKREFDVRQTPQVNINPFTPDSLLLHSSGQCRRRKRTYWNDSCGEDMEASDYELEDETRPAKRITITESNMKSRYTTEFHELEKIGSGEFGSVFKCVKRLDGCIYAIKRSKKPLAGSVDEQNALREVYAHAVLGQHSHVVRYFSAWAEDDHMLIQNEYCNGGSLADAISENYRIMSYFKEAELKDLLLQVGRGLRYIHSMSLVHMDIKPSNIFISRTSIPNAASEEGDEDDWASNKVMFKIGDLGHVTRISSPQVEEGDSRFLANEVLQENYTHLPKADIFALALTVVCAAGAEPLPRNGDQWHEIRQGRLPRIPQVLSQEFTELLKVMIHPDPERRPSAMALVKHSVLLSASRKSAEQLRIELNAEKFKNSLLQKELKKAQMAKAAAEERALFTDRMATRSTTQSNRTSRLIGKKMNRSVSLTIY
T5 sequence (Q96SW2 whole entry): as the sequence (Q96SW2 whole entry) above
T5 sequence (Q16531 whole entry partner): as the sequence (Q16531 whole entry partner) above

GSPT1 = assay: as above; type: cell-based, Human; details: 24 hours treatment, compounds at 50 nM and 500 nM (concentration behind the class not stated)
[1] = target: T6, human Cereblon WT GST-tagged protein (Homo sapiens, UniProt Q96SW2); assay: CRBN-binding affinity, HTRF (CEREBLON BINDING kit); details: for inhibition at 0.5 µM: read-out: Inhibition Rate at 0.5 µM (%); for inhibition at 2 µM: read-out: Inhibition Rate at 2 µM (%)
T6 construct: purchased CISBIO 64BDCRBNPEH
T6 sequence (Q96SW2 whole entry): as the sequence (Q96SW2 whole entry) above

inhibition at 0.5 µM [1] [%]	inhibition at 2 µM [1] [%]	Structure (SMILES)	CK1α substrate protein remaining % (CK1α)	IKZF 1 substrate protein remaining % (IKZF1)	IKZF2 substrate protein remaining % (IKZF2)	IKZF3 substrate protein remaining % (IKZF3)	Wee1 substrate protein remaining % (WEE1)	GSPT1 substrate protein remaining % (GSPT1)
53 to 60	80 to 100	Cc1nc(N2CCN(Cc3ccc4c(c3)CN(C3CCC(=O)NC3=O)C4=S)CC2)c2c3c(sc2n1)CCCC3 (stereo not shown) [GT-09299, 3-(5-((4-(2-methyl-5,6,7,8-tetrahydrobenzo[4,5]thieno[2,3-d]pyrimidin-4-yl)piperazin-1-yl)methyl)-1-thioxoisoindolin-2-yl)piperidine-2,6-dione]	B (80%< substrate protein remaining %≤ 100%)	B (80%< substrate protein remaining %≤ 100%)	A (0% ≤ substrate protein remaining % ≤ 80%)	A (0% ≤ substrate protein remaining % ≤ 80%)	B (80%< substrate protein remaining %≤ 100%)	B (80%< substrate protein remaining %≤ 100%)
53 to 60	80 to 100	O=C1CCC(N2Cc3cc(CN4CCN(c5ncnc6sc7c(c56)CCCC7)CC4)ccc3C2=S)C(=O)N1 (stereo not shown) [GT-09300, 3-(5-((4-(5,6,7,8-tetrahydrobenzo[4,5]thieno[2,3-d]pyrimidin-4-yl)piperazin-1-yl)methyl)-1-thioxoisoindolin-2-yl)piperidine-2,6-dione]	B (80%< substrate protein remaining %≤ 100%)	A (0% ≤ substrate protein remaining % ≤ 80%)	A (0% ≤ substrate protein remaining % ≤ 80%)	A (0% ≤ substrate protein remaining % ≤ 80%)	B (80%< substrate protein remaining %≤ 100%)	B (80%< substrate protein remaining %≤ 100%)
60 to 80	80 to 100	O=C1CCC(N2Cc3cc(CN4CCN(c5ncnc6sc7c(c56)CCC7)CC4)ccc3C2=S)C(=O)N1 (stereo not shown) [GT-09301, 3-(5-((4-(6,7-dihydro-5H-cyclopenta[4,5]thieno[2,3-d]pyrimidin-4-yl)piperazin-1-yl)methyl)-1-thioxoisoindolin-2-yl)piperidine-2,6-dione]	B (80%< substrate protein remaining %≤ 100%)	A (0% ≤ substrate protein remaining % ≤ 80%)	A (0% ≤ substrate protein remaining % ≤ 80%)	A (0% ≤ substrate protein remaining % ≤ 80%)	B (80%< substrate protein remaining %≤ 100%)	B (80%< substrate protein remaining %≤ 100%)
60 to 80	80 to 100	O=C1CCC(N2Cc3cc(CN4CCC(c5ncnc6scc(-c7ccccc7)c56)CC4)ccc3C2=S)C(=O)N1 (stereo not shown) [GT-09307, 3-(5-((4-(5-phenylthieno[2,3-d]pyrimidin-4-yl)piperidin-1-yl)methyl)-1-thioxoisoindolin-2-yl)piperidine-2,6-dione]	A (0% ≤ substrate protein remaining % ≤ 80%)	A (0% ≤ substrate protein remaining % ≤ 80%)	B (80%< substrate protein remaining %≤ 100%)	A (0% ≤ substrate protein remaining % ≤ 80%)	A (0% ≤ substrate protein remaining % ≤ 80%)	A (0% ≤ substrate protein remaining % ≤ 80%)
60 to 80	80 to 100	Cc1nc(C2CCN(Cc3ccc4c(c3)CN(C3CCC(=O)NC3=O)C4=S)CC2)c2ccsc2n1 (stereo not shown) [GT-09309, 3-(5-((4-(2-methylthieno[2,3-d]pyrimidin-4-yl)piperidin-1-yl)methyl)-1-thioxoisoindolin-2-yl)piperidine-2,6-dione]	B (80%< substrate protein remaining %≤ 100%)	B (80%< substrate protein remaining %≤ 100%)	B (80%< substrate protein remaining %≤ 100%)	B (80%< substrate protein remaining %≤ 100%)	B (80%< substrate protein remaining %≤ 100%)	A (0% ≤ substrate protein remaining % ≤ 80%)
53 to 60	80 to 100	Cc1nc(C2CCN(Cc3ccc4c(c3)CN(C3CCC(=O)NC3=O)C4=S)CC2)c2c3c(sc2n1)CCCC3 (stereo not shown) [GT-09310, 3-(5-((4-(2-methyl-5,6,7,8-tetrahydrobenzo[4,5]thieno[2,3-d]pyrimidin-4-yl)piperidin-1-yl)methyl)-1-thioxoisoindolin-2-yl)piperidine-2,6-dione]	B (80%< substrate protein remaining %≤ 100%)	B (80%< substrate protein remaining %≤ 100%)	B (80%< substrate protein remaining %≤ 100%)	A (0% ≤ substrate protein remaining % ≤ 80%)	B (80%< substrate protein remaining %≤ 100%)	A (0% ≤ substrate protein remaining % ≤ 80%)
60 to 80	80 to 100	O=C1CCC(N2Cc3cc(CN4CCC(c5ncnc6sc7c(c56)CCC7)CC4)ccc3C2=S)C(=O)N1 (stereo not shown) [GT-09311, 3-(5-((4-(6,7-dihydro-5H-cyclopenta[4,5]thieno[2,3-d]pyrimidin-4-yl)piperidin-1-yl)methyl)-1-thioxoisoindolin-2-yl)piperidine-2,6-dione]	B (80%< substrate protein remaining %≤ 100%)	A (0% ≤ substrate protein remaining % ≤ 80%)	B (80%< substrate protein remaining %≤ 100%)	A (0% ≤ substrate protein remaining % ≤ 80%)	A (0% ≤ substrate protein remaining % ≤ 80%)	A (0% ≤ substrate protein remaining % ≤ 80%)
60 to 80	80 to 100	Cc1nc(C2CCN(Cc3ccc4c(c3)CN(C3CCC(=O)NC3=O)C4=S)CC2)c2c3c(sc2n1)CCC3 (stereo not shown) [GT-09312, 3-(5-((4-(2-methyl-6,7-dihydro-5H-cyclopenta[4,5]thieno[2,3-d]pyrimidin-4-yl)piperidin-1-yl)methyl)-1-thioxoisoindolin-2-yl)piperidine-2,6-dione]	B (80%< substrate protein remaining %≤ 100%)	B (80%< substrate protein remaining %≤ 100%)	B (80%< substrate protein remaining %≤ 100%)	A (0% ≤ substrate protein remaining % ≤ 80%)	B (80%< substrate protein remaining %≤ 100%)	A (0% ≤ substrate protein remaining % ≤ 80%)
60 to 80	80 to 100	O=C1CCC(N2Cc3cc(CN4CCC(c5ncc6ccsc6n5)CC4)ccc3C2=S)C(=O)N1 (stereo not shown) [GT-09313, 3-(5-((4-(thieno[2,3-d]pyrimidin-2-yl)piperidin-1-yl)methyl)-1-thioxoisoindolin-2-yl)piperidine-2,6-dione]	B (80%< substrate protein remaining %≤ 100%)	A (0% ≤ substrate protein remaining % ≤ 80%)	B (80%< substrate protein remaining %≤ 100%)	B (80%< substrate protein remaining %≤ 100%)	B (80%< substrate protein remaining %≤ 100%)	A (0% ≤ substrate protein remaining % ≤ 80%)
60 to 80	80 to 100	Cc1csc2ncnc(C3=CCN(Cc4ccc5c(c4)CN(C4CCC(=O)NC4=O)C5=S)CC3)c12 (stereo not shown) [GT-09315, 3-(5-((4-(5-methylthieno[2,3-d]pyrimidin-4-yl)-3,6-dihydropyridin-1(2H)-yl)methyl)-1-thioxoisoindolin-2-yl)piperidine-2,6-dione]	B (80%< substrate protein remaining %≤ 100%)	A (0% ≤ substrate protein remaining % ≤ 80%)	B (80%< substrate protein remaining %≤ 100%)	A (0% ≤ substrate protein remaining % ≤ 80%)	B (80%< substrate protein remaining %≤ 100%)	A (0% ≤ substrate protein remaining % ≤ 80%)

Structure (SMILES)	inhibition at 0.5 µM [1] [%]	inhibition at 2 µM [1] [%]	CK1α substrate protein remaining % (CK1α)	IKZF 1 substrate protein remaining % (IKZF1)	IKZF2 substrate protein remaining % (IKZF2)	IKZF3 substrate protein remaining % (IKZF3)	Wee1 substrate protein remaining % (WEE1)	GSPT1 substrate protein remaining % (GSPT1)
O=C1CCC(N2Cc3cc(CN4CCC(c5ccnc6cc(F)ccc56)CC4)ccc3C2=S)C(=O)N1 (stereo not shown) [GT-09278, 3-(5-((4-(7-fluoroquinolin-4-yl)piperidin-1-yl)methyl)-1-thioxoisoindolin-2-yl)piperidine-2,6-dione]	30 to 40	60 to 80	B (80%< substrate protein remaining %≤ 100%)	A (0% ≤ substrate protein remaining % ≤ 80%)	B (80%< substrate protein remaining %≤ 100%)	A (0% ≤ substrate protein remaining % ≤ 80%)	A (0% ≤ substrate protein remaining % ≤ 80%)	B (80%< substrate protein remaining %≤ 100%)
